Where two headings read alike, the source gives them in different places.
Columns and labels:
CTLA4 gene = assay: gRNA cleavage in K562 cells, T7E1 mismatch detection assay; format: cell-based, human; details: FIG. 7
Experimental: (§1) Cells having inhibitory receptor function removed were prepared as follows. gRNA constructs were designed and prepared to target genes encoding the ‘classical’ inhibitory receptor LIR2 and the ‘checkpoint’ inhibitory receptor CTLA4 in the human genome of NK cells. CRISPR/Cas9 genome editing was then used to knock out the LIR2 and CTLA4 target genes.
(§2) Two gRNA candidates were selected for each target gene and their cleavage efficacies in K562 cells determined.
(§3) K562 cells were transfected with the prepared gRNA constructs (FIG. 5) and subsequently harvested for PCR amplification. The presence of GFP expression was used to report successful incorporation of the gRNA construct into the K562 cells. This confirmed expression of the Cas9 gene and therefore the ability to knock out expression of the LIR2 and CTLA4 genes. The cleavage activity of the gRNA constructs was determined using an in vitro mismatch detection assay. T7E1 endonuclease I recognizes and cleaves non-perfectly matched DNA, allowing the parental LIR2 and CTLA4 genes to be compared to the mutated genes following CRISPR/Cas9 transfection and non-homologous end joining (NHEJ).

LIR2 gene = assay: as above; format: cell-based, human; details: FIG. 6
Experimental: as §1, §2, §3
The three bands corresponding to each mutation relate to the parental gene (601) and the two resulting strands following detection of a mismatch in the DNA sequence after transfection (602 and 603).

decoy receptor DcR1 = biological target: T1, decoy receptor DcR1 (Homo sapiens, UniProt O14798); details: surface plasmon resonance; WO 2009/077857; cited from earlier work
T1 sequence (O14798 26-236): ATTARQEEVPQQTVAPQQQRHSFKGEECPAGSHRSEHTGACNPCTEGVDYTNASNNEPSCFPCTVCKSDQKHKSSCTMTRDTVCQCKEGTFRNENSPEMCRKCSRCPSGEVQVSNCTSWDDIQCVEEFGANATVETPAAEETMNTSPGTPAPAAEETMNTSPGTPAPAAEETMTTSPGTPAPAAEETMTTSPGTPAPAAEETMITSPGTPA

DR4 = DR4 (Homo sapiens, UniProt O00220); details: surface plasmon resonance; WO 2009/077857; cited from earlier work
DR5 [1] = details: for DR5 expression, MFI: 24 hours, FIG. 20
Text: Bortezomib was bought from Millennium Pharmaceuticals.

[2] = system: decoy receptors (DcR1 and DcR2); details: D269H/E195R mutation, relative to wildtype TRAIL; cited from earlier work
DR5 [3] = biological target: DR5 (Homo sapiens, UniProt O14763); details: D269H/E195R mutation, relative to wildtype TRAIL; cited from earlier work

## g7 gRNA: gRNA targeting hCTLA4, CACTCACCTTTGCAGAAGACAGG (SEQ ID NO: 26) (listed as DNA, chemistry not fully specified; listed as Homo sapiens)
CTLA4 gene
  success rate of transfection (CTLA4 knockout): 32%

## g18 gRNA: gRNA targeting hLIR2, CGAATCGCAGGTGGTCGCACAGG (SEQ ID NO: 25) (listed as DNA, chemistry not fully specified; listed as Homo sapiens)
LIR2 gene
  success rate of transfection (LIR2 knockout): 10%

## g9 gRNA: gRNA targeting hLIR2, GAGTCACAGGTGGCATTTGGCGG (SEQ ID NO: 24) (listed as DNA, chemistry not fully specified; listed as Homo sapiens)
LIR2 gene
  success rate of transfection (LIR2 knockout): 11%

## g15 gRNA: gRNA targeting hCTLA4, CCTTGTGCCGCTGAAATCCAAGG (SEQ ID NO: 27) (listed as DNA, chemistry not fully specified; listed as Homo sapiens)
CTLA4 gene
  success rate of transfection (CTLA4 knockout): 26%

## Wildtype TRAIL: TNF-related apoptosis-inducing ligand, wild-type protein
Decoy receptor DcR1
  Kd: > 0.02 µM
DR4
  Kd: > 0.002 µM

## CC(C)C[C@H](NC(=O)[C@H](Cc1ccccc1)NC(=O)c1cnccn1)B(O)O [Bortezomib]
DR5 [1]; MM1.S cells, 2.5 nm of Bortezomib, untreated MFI 214
  DR5 expression, MFI: 662
DR5 [1]; RPMI 8226 cells, 10 nm Bortezomib, untreated MFI 273
  DR5 expression, MFI: 679
DR5 [1]; high doses of Bortezomib
  DR5 expression at high doses: could not be upregulated

B1: TRAIL variant: TRAIL variant of WO 2009/077857, wildtype TRAIL gene containing the D269H/E195R mutation (protein)
chain: MAMMEVQGGPSLGQTCVLIVIFTVLLQSLCVAVTYVYFTNELKQMQDKYSKSGIACFLKEDDSYWDPNDEESMNSPCWQVKWQLRQLVRKMILRTSEETISTVQEKQQNISPLVRERGPQRVAAHITGTRGRSNTLSSPNSKNEKALGRKINSWESSRSGHSFLSNLHLRNGELVIHEKGFYYIYSQTYFRFQERIKENTKNDKQMVQYIYKYTSYPDPILLMKSARNSCWSKDAEYGLYSIYQGGIFELKENDRIFVSVTNEHLIDMHHEASFFGAFLVG
[2]
  affinity for both decoy receptors (DcR1 and DcR2): reducing
DR5 [3]
  affinity of the TRAIL variant for DR5: significantly increases
